Where a name gives a salt, the structure may show the parent alone.
Tests used:
Format in all cases: physicochemical
[1] = Accelerated experiment (stability at 40 °C, 75% RH)
Protocol: (§1) Each test sample was placed under high temperature (60 °C), high humidity (92.5%), light (7000 lux), or accelerated (40 °C, 75% RH) conditions using a 2 mL screw-thread sample vial in an open state; each sample was placed with packaging (2 layers of medicinal low-density polyethylene bags + 1 layer of polyester/aluminum/polyethylene medicinal composite film bag) under light (7000 lux) or accelerated (40 °C, 75% RH) conditions to investigate the stability of the sample.

[2] = Influencing factor experiment (stability under high temperature, high humidity, light)
Protocol: as §1

[3] = Solubility experiment in water
Protocol: The thermodynamic solubility of the compounds of the present disclosure was determined using the following test method.
The thermodynamic solubility of the compounds of the present disclosure in water was investigated. Water (1000 µL) was measured and placed into a 1 mL transparent glass tube with a stopper. An appropriate amount of each sample was weighed and added to saturate the solution, and the solution was shaken to disperse the sample. […] Then, an appropriate amount of the sample was taken, filtered through a microporous filter membrane, and subjected to content determination using high-performance liquid chromatography with an external standard method. The thermodynamic solubility of each compound in water (µg/mL) was calculated.

[4] = Hygroscopicity experiment (dynamic vapor sorption); details: 80.0% RH, 25 °C
Protocol: Test conditions for the instruments used in the experiments of the present disclosure: • 1. X-ray powder diffraction • Instrument model: Bruker D8 Focus • X-ray light source: Cu Kα • Kα1 (Å): 1.54060; • Wavelength λ (Å): 1.54060 • Slit (°): 2.5 • Scan mode: θ/2θ, scan range: 3-40° (2θ angle) • Retention time (s): 0.12 • Scanning step length (° 2θ): 0.01 • Voltage: 40 kV • Current: 40 mA • 2. Differential scanning calorimeter • Instrument model: Discovery DSC 2500 • Purging gas: nitrogen • Sample tray: aluminum tray, non-sealing gland • Method: linear heating • Ramping rate: 10 °C/min • Temperature range: 30 °C-400 °C • 3. Thermogravimetric analyzer • Instrument model: Discovery TA 55 • Purging gas: nitrogen • Sample tray: platinum, open • Method: linear heating • Ramping rate: Ramp from a starting temperature of 30 °C to 400 °C at a rate of 10 °C/min • Temperature range: 30 °C-400 °C • 4. Dynamic vapor sorption instrument • Instrument model: DVS Intrinsic. • DVS parameters: • Temperature: 25 °C; • Equilibrium: dm/dt = 0.002%/min • RH (%) test gradient: 10% • Range of RH (%) test gradient: 0%-90%-0%. • 5. Ion chromatography • Instrument model: Thermo Fisher Integrion, No. IC001 • Test method: Conductivity […] • Separation column: Dionex IonpacTM CS12 Guard 4 × 250 mm • Eluent: 20 mM methanesulfonic acid solution • Flow rate: 1.0 mL/min
• (1) Experimental instrument: dynamic vapor sorption DVS Intrinsic. • (2) Experimental conditions: Each test sample was taken and placed in a DVS sample pan for testing. • (3) DVS parameters: • Temperature: 25 °C; • Equilibrium: dm/dt = 0.002%/min • RH (%) test gradient: 10% • Range of RH (%) test gradient: 0%-90%-0%.

[5] = Accelerated (40 °C), packaged, 14d
[6] = Accelerated (40 °C), packaged, 32d
[7] = Light (7000 lux, packaged), 10d
[8] = Light (7000 lux, packaged), 32d

Molecule `COc1ccc(Cl)cc1-c1cc(C)ncc1C(=O)Nc1nc2ncc(-c3ccc(C#N)cc3)nc2s1` [Amorphous form of sodium salt of compound of formula I] has a Purity ([1]; 0 h, 0d) of 99.31%, a Total impurities ([1]; 0 h, 0d) of 0.52% and a Purity ([1]; Accelerated (40 °C), open, 7d) of 99.33%. For the same molecule, the Total impurities ([1]; Accelerated (40 °C), open, 7d) was 0.67%, the Purity ([2]; 0 h, 0d) was 99.31% and the Total impurities ([2]; 0 h, 0d) was 0.52%. The Purity ([2]; High humidity (92.5% RH), 11d) was 98.89%, the Total impurities ([2]; High humidity (92.5% RH), 11d) was 1.11% and the Purity ([2]; High temperature (60 °C), 11d) was 99.23%. For the same molecule, the Total impurities ([2]; High temperature (60 °C), 11d) was 0.77%, the Purity ([2]; Light (7000 lux, open), 7d) was 97.57% and the Total impurities ([2]; Light (7000 lux, open), 7d) was 2.43%. For the same molecule, the “Dynamic solubility in water” value ([3]; 1h, 60 min) was 1.57 µg/mL, the “Dynamic solubility in water” value ([3]; 2h, 120 min) was 4.37 µg/mL and the “Dynamic solubility in water” value ([3]; 4h, 240 min) was 44.68 µg/mL. For the same molecule, the “Dynamic solubility in water” value ([3]; 24h, 1440 min) was 0.72 µg/mL.
For `COc1ccc(Cl)cc1-c1cc(C)ncc1C(=O)Nc1nc2ncc(-c3ccc(C#N)cc3)nc2s1` [Crystal form A], the “weight gain due to moisture absorption” value [4] was 1.6%, the Purity ([1]; 0 h, 0d) was 99.21% and the Total impurities ([1]; 0 h, 0d) was 0.79%. The Purity ([1]; Accelerated (40 °C), open, 7d) was 99.21%, the Total impurities ([1]; Accelerated (40 °C), open, 7d) was 0.79% and the Purity ([1]; Accelerated (40 °C), open, 14d) was 99.17%. The Total impurities ([1]; Accelerated (40 °C), open, 14d) was 0.83%, the Purity ([1]; Accelerated (40 °C), open, 32d) was 99.18% and the Total impurities ([1]; Accelerated (40 °C), open, 32d) was 0.82%. The Purity [1, 5] was 99.19%, the Total impurities [1, 5] was 0.81% and the Purity [1, 6] was 99.19%. It also gave a Total impurities [1, 6] of 0.81%, a Purity ([2]; 0 h, 0d) of 99.21% and a Total impurities ([2]; 0 h, 0d) of 0.79%. It also gave a Purity ([2]; High humidity (92.5% RH), 7d) of 99.26%, a Total impurities ([2]; High humidity (92.5% RH), 7d) of 0.74% and a Purity ([2]; High humidity (92.5% RH), 14d) of 99.20%. It also gave a Total impurities ([2]; High humidity (92.5% RH), 14d) of 0.80%, a Purity ([2]; High humidity (92.5% RH), 32d) of 99.21% and a Total impurities ([2]; High humidity (92.5% RH), 32d) of 0.79%. It also gave a Purity ([2]; High temperature (60 °C), 7d) of 99.23%, a Total impurities ([2]; High temperature (60 °C), 7d) of 0.77% and a Purity ([2]; High temperature (60 °C), 14d) of 99.17%. For the same molecule, the Total impurities ([2]; High temperature (60 °C), 14d) was 0.83%, the Purity ([2]; High temperature (60 °C), 32d) was 99.15% and the Total impurities ([2]; High temperature (60 °C), 32d) was 0.85%. It also gave a Purity ([2]; Light (7000 lux, open), 7d) of 99.11%, a Total impurities ([2]; Light (7000 lux, open), 7d) of 0.89% and a Purity ([2]; Light (7000 lux, open), 14d) of 98.75%. For the same molecule, the Total impurities ([2]; Light (7000 lux, open), 14d) was 1.25%, the Purity ([2]; Light (7000 lux, open), 32d) was 98.24% and the Total impurities ([2]; Light (7000 lux, open), 32d) was 1.76%. For the same molecule, the Purity [2, 7] was 99.19%, the Total impurities [2, 7] was 0.81% and the Purity [2, 8] was 99.22%. The Total impurities [2, 8] was 0.78%, the “Dynamic solubility in water” value ([3]; 1h, 60 min) was 2081.71 µg/mL and the “Dynamic solubility in water” value ([3]; 2h, 120 min) was 1590.35 µg/mL. For the same molecule, the “Dynamic solubility in water” value ([3]; 4h, 240 min) was 1441.04 µg/mL and the “Dynamic solubility in water” value ([3]; 24h, 1440 min) was 27.01 µg/mL.

From patent publication EP4745145A1, “SALT OF THIAZOLOPYRAZINE COMPOUND OR CRYSTAL THEREOF AND USE THEREOF” (Simcere Zaiming Pharmaceutical Co., Ltd., priority 2023, dated 2025)
